In patent US20060074103A1, “Cyclic beta-amino acid derivatives as factor Xa inhibitors” (priority 2004, published 2006) one finds melting point data, which are given here for 1 compound.

By melting point is commonly meant the temperature of the solid-liquid transition. Consider `O=C(N[C@H]1CCCC[C@@H]1C(=O)Nc1ccc(Cl)cn1)c1ccc(-n2ccccc2=O)cc1` [Example 1], for which the melting point was in the range of 301 to 303 °C.
